Patent US10407488B2, “Therapy for treatment or prevention of conditions associated with bleeding or hypocoagulation” (THE REGENTS OF THE UNIVERSITY OF CALIFORNIA, priority 2013, dated 2019)

Legend:
[1] = tested on: thrombin generation in normal human plasma; experiment: Thrombin generation in NHP in the presence of rivaroxaban or apixaban; type: biochemical; settings: factor alone: rhFVIIa 2 μg/ml, ^superFVa 400 nM; NOAC 200 nM
Method: Thrombin generation or Endogenous Thrombin Potential (ETP) assays were performed as described. Briefly, plasma samples supplemented with CTI, TF, PCPS were preincubated […] in the presence or absence of rivaroxaban, apixaban, Kcentra®, NovoSeven® or ^superFVa. Thrombin generation was initiated by addition of CaCl2 and Z-Gly-Gly-Arg-AMC in HBS/0.5% BSA. The final reaction mixture contained, 50% plasma, 0.725 μM CTI, 0.2 Pm TF, 4 μM PCPS vesicles, 0.5 mM Z-GGR-AMC, 7.6 mM CaCl2 in a total volume of 100 μl. Concentrations of rivaroxaban, apixaban, Kcentra®, NovoSeven® or ^superFVa are indicated in the result section and in the figure legends. Fluorescence was measured at excitation/emission wavelengths of […] using Gemini EM fluorescent plate reader (Molecular Devices). Fluorescence time course data were converted to Nm thrombin as described. ETP, defined as the area under the curve (AUC) and the peak height were determined using Origin software.

[2] = tested on: thrombin generation in patient plasma; experiment: Thrombin generation in plasma of inhibitor patients before and 5 minutes after rhFVIIa infusion, ^superFVa added ex vivo; type: biochemical, human
Excerpt: Normal pooled human plasma and plasma from human FVIII-deficient patients with and without inhibitors (titer specified in Bethesda Units (BU)) was purchased from George King Bio-Medical (Overland Park, Kans., USA). In addition, plasma and clinical information was obtained from two patients with severe FVIII-deficiency (<1% intrinsic FVIII-activity levels) and inhibitors (titers determined in BU by the clinical laboratory using the Nijmegen assay (17) regularly visiting the Hemophilia Treatment Center at the University of California, San Diego (UCSD) after informed consent was obtained. Patient confidentiality safeguards, sample and data acquisition methods were approved by the UCSD Institutional Review Board. Blood was drawn into 3.8% sodium citrate (pH 5.5) at a 9:1 blood/anticoagulant volume ratio, and processed immediately. Plasma was collected and frozen at −80° C. after centrifugation at 2600×g for 15 minutes. The following reagents were used: Thrombin from Enzyme Research Laboratories (South Bend, Ind., USA), hirudin from Calbiochem (San Diego, Calif., USA), Corn trypsin inhibitor (CTI) from Enzyme Research Laboratories, thrombin calibrator from Synapse BV (distributed by Diagnostica Stago), Substrate Z-Gly-Gly-Arg-AMC from Bachem (Bubendorf Switzerland), recombinant human tissue factor (TF), Dade Innovin from Dade Behring (Newark, Del., USA), mouse anti-human FVIII (GMA8015) and isotype antibody (GMA650) from Green mountain antibodies (Burlington, Vt., USA), recombinant human FVIIa, NovoSeven®, from NovoNordisk (Bagsvaerd, Denmark), Phospholipid vesicles (80% phosphatidylcholine (PC), 20% phosphatidylserine (PS)) were purchased from Avanti Lipids (Alabaster, Ala., USA) and prepared as described (18).
Endogenous thrombin potential (ETP) assays were performed as described (19). Briefly, plasma samples supplemented with CTI, TF, PCPS vesicles and coagulation factors were preincubated with the plasma at 37° C. Thrombin generation was initiated by addition of CaCl2 and Z-Gly-Gly-Arg-AMC in HBS/0.5% BSA. The final reaction mixture contained, 50% plasma, 0.2 pM TF, […] PCPS vesicles, 0.725 μM CTI, 0.5 mM Z-GGR-AMC and 7.6 mM CaCl2 in a total volume of 100 μL. In some experiments, 1.25 μg/ml anti-FVIII antibody was added to the plasma and ETP was determined after 1 hour of preincubation. Fluorescence was measured at excitation/emission wavelengths of […] using Gemini EM fluorescent plate reader (Molecular Devices). Fluorescence time course data were converted to nM thrombin as described (20). ETP, defined as the area under the curve (AUC) and the peak height were determined using Origin or GraphPad Prism software.
This example relates to the experiments the results of which are contained in FIG. 5. […]

[3] = tested on: clot lysis time in NHP with anti-FVIII antibody; experiment: Clot lysis assay (t-PA mediated) in normal human plasma with anti-FVIII antibody; type: biochemical
Method: FIGS. 28A and 28B show the synergistic effect of ^superFVa in combination with rhFVIIa on clot stabilization in NHP spiked with anti-FVIII antibody. Clot lysis time was determined by t-PA mediated fibrinolysis following thrombin induced fibrin clot formation in NHP spiked with anti-FVIII-antibody. (A) Increasing concentrations of rhFVIIa were added in the absence (open circle) or presence (open square) of ^superFVa (0.37 nM). (B) Increasing concentrations of ^superFVa were added in the absence (open circle) or presence (open square) of rhFVIIa (0.37 nM). Clot lysis time of NHP without inhibitors in the absence (open upward triangle) or presence of CPI (open downward triangle) represent control experiments. Normal human plasma; NHP. Carboxypeptidase inhibitor from potato tubers; CPI. Error bars represent standard error of the mean (n≥3).
Clot stability was studied as t-PA induced clot lysis time in NHP with anti-FVIII antibodies (GMA8015) at 10 μg/mL, as well as in FVIIIdP. The concentration of antibody was based on maximal shortening of the clot lysis time from approximately 105 min to 75 min following antibody titration (data not shown). The clot lysis time in the presence of antibody (10 μg/mL) was similar to the clot lysis time in the presence of CPI, which was used as control since it causes suppression of Thrombin Activatable Fibrinolysis Inhibitor (TAFI) activation. […]

[4] = increasing ^superFVa added ex vivo, plasma before and 5 minutes after rhFVIIa infusion

## ^superFVa: engineered APC-resistant FVa variant (SEQ ID NO:4): R306Q, R506Q, R679Q, Cys609-Cys1691 disulfide, S2183A, B-domain deleted
[1]
  ability to enhance the ETP of NHP suppressed with rivaroxaban or apixaban: nor ^superFVa at high concentration (400 nM) were able to enhance the ETP
[2]; Patient A, BU=64
  ^superFVa concentration at which ETP plateaued: 10 nM
[2]; [4]
  additional increase of ETP: ~3 fold
  additional increase of peak height: ~3 fold
[2]; patient with BU=64
  ^superFVa concentration at which ETP plateaued: 1.76 µg/mL
[3]; factor alone, NHP with anti-FVIII antibody
  concentration at which clot lysis times returned to normal: 3.33 nM
[3]; factor individually, 10 μg/ml anti-FVIII antibody
  concentration showing enhancement of clot lysis time: 2 to 5 µg/mL
